Source: publication PMC12844998, “Bridging the Knowledge Gap in Harmaline’s Pharmacological Properties: A Focus on Thermodynamics and Kinetics” (Pharmaceutics, 2025)
Where “and” joins values, the source holds several entries; their conditions need not be identical. Identical values can stand only once. Entries after “also recorded” stand apart in the source; their conditions may differ. Like-named read-outs stand apart in the source and are kept apart here.

Assays:
[1] = Equilibrium distribution coefficients in organic solvent/pH 7.4 systems, shake-flask method; assay type: physicochemical; settings: for logD / logD at 24 h: read-out: log DappOctOH/pH7.4 (logD) (converted); for DappHex/pH7.4 ·10^2: value given as D×10^2
Description: The equilibrium distribution coefficients of HML were determined in the OctOH/pH 7.4 and Hex/pH 7.4 systems by the shake-flask method over a wide temperature range of 293.15–313.15 K. The distribution coefficient in the IPM/pH 7.4 system was obtained at 310.15 K. Before the experiment, the aqueous and organic phases were mutually pre-saturated by vigorous shaking for 24 h, equilibrated, and then carefully separated. The stock HML solutions were prepared in OctOH for the OctOH/pH 7.4 system and in pH 7.4 for both the Hex/pH 7.4 and IPM/pH 7.4 systems. The volumes of the organic and aqueous phases were selected according to the HML solubility in each solvent. The glass vials containing the two-phase system were equilibrated at constant temperature for 24 h. After this, the vials were allowed to stand for not less than 4 h, and the phases were carefully separated. The concentration of HML in each phase was measured using a UV-VIS spectrophotometer (Cary-50 Varian, Palo Alto, CA, USA; Software Version 3.00 (339)). Each experiment was carried out in three or more replicates. The standard deviation ranged from 2% to 4% of the mean. The distribution coefficients were calculated by Equation (1):(1) DappOrg/pH7.4=C2Org/pH7.4⋅V^pH7.4/Org/C2pH7.4/Org⋅V^Org/pH7.4 where DappOrg/pH7.4 is the distribution coefficient calculated using the compound concentrations in molar units, C2Org/pH7.4 and C2pH7.4/Org are the molar concentrations of the drug in the mutually saturated organic and aqueous phases, respectively, V^pH7.4/Org and V^Org/pH7.4 are the volumes of the mutually saturated buffer and organic phases, respectively. The ΔlogD parameters that characterize the drug’s hydrogen-bonding potential and reflect the impact of specific interactions on partition processes were calculated as follows:(2) ΔlogD^Oct/Hex=logDappOct/pH7.4−logDappHex/pH7.4 (3) ΔlogD^IPM/Hex=logDappIPM/pH7.4−logDappHex/pH7.4

[2] = Kinetics of distribution in OctOH/pH 7.4 and IPM/pH 7.4 (1-5 h); assay type: physicochemical
Description: Distribution coefficients were measured at 1, 2, 3, 4, and 5 h in OctOH/pH 7.4 and IPM/pH 7.4 at 310.15 K to assess the kinetics of HML distribution.

[3] = Permeability in Franz diffusion cell, regenerated cellulose membrane; assay type: in vitro ADME; settings: RC membrane, pH 7.4, 310.15 K
Description: (§1) Permeability coefficients were measured in a vertical type Franz diffusion cell (PermeGear, Inc., Hellertown, PA, USA) maintained at 37 °C, with an effective diffusion area of 0.785 cm^2. The volumes of the donor (lower) and the acceptor (upper) compartments were 7 mL and 2 mL, respectively. Three artificial membranes were used in the study: Regenerated cellulose (RC): Standard Grade RC Dialysis Membrane with a molecular weight cut-off (MWCO) of 12–14 kDa and a flat width of 45 mm; PermeaPad barrier (PP): A commercially available barrier (PHABIOC, Fritz-Souchon-Str. 27, 32339 Espelkamp, Germany; www.innome.de), originally proposed by di Cagno et al.; Polydimethylsiloxane-polycarbonate membrane (PDS): A “Carbosil” membrane composed of 55% polydimethylsiloxane and 45% polycarbonate (PENTAMED, Moscow, Russia; https://medpolymer.ru/).
(§2) A solution of HML in pH 7.4 (7 mL) was placed into the donor chamber of a Franz cell. The acceptor compartment was filled with pure buffer pH 7.4 (1 mL). Over a period of 5 h, 0.5 mL samples were withdrawn from the acceptor compartment at 30 min intervals and replaced with an equal volume of fresh pH 7.4 buffer. The sample concentrations were determined by UV-Vis spectroscopy (Cary-50, Varian, Palo Alto, CA, USA; Software Version 3.00 (339)) or by HPLC (for experiments involving the polydimethylsiloxane-polycarbonate membrane). The cumulative amount of drug permeated through the membrane was plotted as a function of time. The flux was determined from the slope of the linear portion of each curve. The permeability coefficient was calculated using the following equation:(4) Papp=J/C0 where J is the flux, and C0 is the concentration of HML in the donor solution. A reverse dialysis setup was employed, where the lower chamber served as the donor compartment and was filled with the drug solution. Sink conditions were maintained in all experiments, meaning the drug concentration in the acceptor compartment never exceeded 10% of its concentration in the donor compartment at any time according the recommendations proposed in [18].

[4] = Permeability in Franz diffusion cell, PermeaPad barrier; assay type: in vitro ADME
Description: as §1, §2

Caco-2 monolayers = experiment: Literature permeability across Caco-2 monolayers; assay type: in vitro ADME; settings: literature Caco-2 (ref 12) vs PP Papp
[5] = Dissolution thermodynamics from van't Hoff plots of solubility; assay type: physicochemical
Source text: The calculation of the thermodynamic parameters for the solubility and distribution processes was based on component concentrations expressed in terms of mole fractions. The standard calculation procedure and the respective equations are presented in the Supplementary Materials (Section S4).

[6] = undefined temperature, cited from earlier work

COc1ccc2c3c([nH]c2c1)C(C)=NCC3 [HML, Harmaline]
logD ([1]; 1-octanol (OctOH)/buffer pH 7.4, pH 7.4, OctOH/pH 7.4, 310.15 K): 1.29
logD ([1]; 1-octanol (OctOH)/buffer pH 7.4, pH 7.4, OctOH/pH 7.4, 313.15 K): 1.34
decrease of distribution coefficient from OctOH/pH 7.4 to IPM/pH 7.4 system ([1]; 310.15 K): 78 fold
DappHex/pH7.4 ·10^2 ([1]; Hex/pH 7.4, 293.15 K): 1.178 ± 0.024
DappHex/pH7.4 ·10^2 ([1]; Hex/pH 7.4, 303.15 K): 1.470 ± 0.037
DappHex/pH7.4 ·10^2 ([1]; Hex/pH 7.4, 308.15 K): 1.718 ± 0.035
DappHex/pH7.4 ([1]; Hex/pH 7.4, 310.15 K, unscaled value in text): 0.022
DappHex/pH7.4 ·10^2 ([1]; Hex/pH 7.4, 310.15 K): 2.197 ± 0.044
DappHex/pH7.4 ·10^2 ([1]; Hex/pH 7.4, 313.15 K): 2.483 ± 0.050
DappIPM/pH7.4 ([1]; IPM/pH 7.4, 310.15 K): 0.25 and 0.250 ± 0.010
logD at 24 h ([1]; OctOH (octanol)/buffer pH 7.4, pH 7.4, OctOH/pH 7.4, 293.15 K): 0.973
logD at 24 h ([1]; OctOH (octanol)/buffer pH 7.4, pH 7.4, OctOH/pH 7.4, 298.15 K): 1.02
logD at 24 h ([1]; OctOH (octanol)/buffer pH 7.4, pH 7.4, OctOH/pH 7.4, 303.15 K): 1.07
logD at 24 h ([1]; OctOH (octanol)/buffer pH 7.4, pH 7.4, OctOH/pH 7.4, 308.15 K): 1.17
DappOctOH/pH7.4 ([1]; OctOH/pH 7.4, 293.15 K): 9.399 ± 0.101
DappOctOH/pH7.4 ([1]; OctOH/pH 7.4, 298.15 K): 10.376 ± 0.208
DappOctOH/pH7.4 ([1]; OctOH/pH 7.4, 303.15 K): 11.653 ± 0.233
DappOctOH/pH7.4 ([1]; OctOH/pH 7.4, 308.15 K): 14.632 ± 0.293
DappOctOH/pH7.4 ([1]; OctOH/pH 7.4, 310.15 K): 19.492 and 19.49 and 19.492 ± 0.389
DappOctOH/pH7.4 ([1]; OctOH/pH 7.4, 313.15 K): 22.138 ± 0.443
fold-change between saturation and 5 h distribution coefficients ([2]; IPM/pH 7.4, 310.15 K): 1.36 fold
increase of distribution from 1 to 5 h ([2]; IPM/pH 7.4, 310.15 K): 1.3 fold
fold-change between saturation and 5 h distribution coefficients ([2]; OctOH/pH 7.4, 310.15 K): 1.38 fold
increase of distribution from 1 to 5 h ([2]; OctOH/pH 7.4, 310.15 K): 1.2 fold
logPapp [3]: −4.31
steady state flux J ([3]; C0 2.11 × 10^−3 M): 1.04 × 10^−4 µmol∙cm^−2∙s^−1
Papp at 5 h ([3]; read-out: permeability coefficient Papp): 49.3 ×10⁻⁶ cm/s
logPapp ([4]; PP barrier, pH 7.4, 310.15 K): −4.43
steady state flux J ([4]; PP barrier, pH 7.4, 310.15 K, C0 2.23 × 10^−3 M): 8.28 × 10^−5 µmol∙cm^−2∙s^−1
Papp at 5 h ([4]; PP barrier, pH 7.4, 310.15 K, read-out: permeability coefficient Papp): 37.1 ×10⁻⁶ cm/s
permeability classification (Di Cagno et al.) ([4]; PP barrier, high permeability if Papp > 2.04∙10^−5 cm∙s^−1): highly permeable; also recorded: high permeated substance
permeability coefficient for PP, fold lower than for RC ([4]; pH 7.4, 310.15 K): 1.3 fold
maximum difference between Caco-2 model permeability and PermeaPad result (Caco-2 monolayers): ≤ 1.4 fold
Gibbs energy of solution ΔGsol0 ([5]; Hex, 298.15 K): 6.84 kcal/mol
enthalpy share of the total free energy change of dissolution ([5]; Hex, 298.15 K): 84%
entropy share of the total free energy change of dissolution ([5]; Hex, 298.15 K): 16%
Gibbs energy of solution ΔGsol0 ([5]; OctOH, 298.15 K): 2.89 kcal/mol
Gibbs energy of solution ΔGsol0 ([5]; pH 7.4, 298.15 K): 5.66 kcal/mol
distribution coefficient n-heptane/aqueous (pH 7.4) ([6]; ref 19): 0.05
distribution coefficient n-heptane/aqueous (pH 7.4) ([6]; ref 20): 0.11
